This note sets out measurements from US6770738B1, “Higher order structure and binding of peptide nucleic acids” (ISIS Pharmaceuticals, Inc., priority 1992, dated 2004).

One series relates to 5′d(AAAAGGAGAG). In words: Melting temperature of complex with decamer. The format is binding. To be noted: pH 7. How it is done: (§1) The dimer prepared in Example 53 was incorporated into PNA H-TT(detT-idaT)CCTCTC-LysNH2 (SEQ ID NO:53) generally in accordance with Example 1. The melting temperatures, Tm, of complexes between this PNA and decamers 5′d(AAAAGGAGAG) (SEQ ID NO:54) and 5′d(GAGAGGAAAA) (SEQ ID NO:55) were 55° C. and 43.5° C., respectively, at pH 7. By comparison, the Tm of complexes between PNA H-TTTCCTCTC-LysNH2 (SEQ ID NO:56), prepared generally in accordance with Example 1, and these decamers was 58.5° C. and 40.5° C., respectively, at pH 7.

In the next series the test system is 5′d(GAGAGGAAAA). In words: Melting temperature of complex with decamer. The format is binding. To be noted: pH 7. How it is done: as §1
For series [1], the system named is pT9CT9C plasmid linearized by CfrlOI. In words: Site-specific S1 nuclease digestion of plasmid with two PNA sites complexed with PNA. The format is biochemical. To be noted: 30 units S1 nuclease; target sites are for T5CT4. From the text: was cloned into the Sal1 site of the pUC19 plasmid. This plasmid, which contained two binding sites for PNA H-T5CT4-LysNH2 (SEQ ID NO:6) separated by six base pairs, was designated pT9CT9C. Strand displacement in the two T5CT4 sites led to opening of the entire region, including the sequence GTCGAC/GACGAC, providing a substrate for the S1 nuclease in both strands. As control, a pT9C-5 plasmid was used, which carried only one T5CT4 (SEQ ID NO:6) insert cloned into the SalI site of the pUC19 plasmid.
cloned in the Sal1 site of the pUC19 polylinker. The pT9C-5 plasmid carried the single insert A5GA4/CT5 (SEQ ID NO:4) cloned in the same site. The PNA-DNA complexes were prepared as described in Example 2 with the only difference being the duration of the incubation was 2 hours. Digestion by 30 units of the S1 nuclease was performed in the same buffer as described in Example 2 with two exceptions, lanes 2 and 4. In lane 2, 15 units of the enzyme were used, whereas in lane 4 200 mM NaCl and 1 mM of ZnSO4 were added to the buffer. Lane 1: the reference band obtained by digestion with the BamHI restriction enzyme of the pUC 19 plasmid linearized by the CfrlOI restriction enzyme. Lanes 2-4 site-specific digestion by the S1 nuclease of the linearized pT9C plasmid complexed with PNA H-T5CT4-LysNH2 (SEQ ID NO:6). Lanes 5-7: various controls. Lane 8: the same experiment as in lane 3, but using PNA T10 (SEQ ID NO:2) instead of T4CT5 (SEQ ID NO:8). Lane 9: the same experiment as in lane 3, but using PNA T2CT2CT4 (SEQ ID NO:1) instead of T4CT5 (SEQ ID NO:8). Lane 10: the same experiment as in lane 3, but using the pT9C-5 plasmid instead of the pT9C. In the header PNA T5CT4 (SEQ ID NO:6) is labelled as 1, T10 (SEQ ID NO:2) as 2 and T2CT2CT4 (SEQ ID NO:1) as 3.
The bands observed by gel electrophoresis have the same position and width as the band created by the BamHI restriction enzyme. […] Moreover, under the much milder S1 nuclease treatment necessary to generate the data for the pT9CT9C, the yield of double-stranded breaks in the pT9C-5 plasmid was extremely low (lane 10).

For series [2], the system named is 264 bp EcorI/PvuII fragment of pT8C2A8G2. Description: KMnO4 and DMS probing of PNA binding to double-stranded DNA. To be noted: pH 7.5, 5 μM PNA, compared to pH 6.5 and 5.5. How it is done:
Probing was effected in 100μ buffer (S1: 100 mM NaCl, 1 mM ZnSO4, 50 mM NaAc, pH 4.5; KMnO4/dimethyl sulphate (DMS): 10 mM Na-cacodylate, 1 mM EDTA, pH 7.0 or as other wise noted) containing about 200 cps ^32P-labeled DNA fragment, 0.5 μg calf thymus DNA and the desired amount of PNA. Following a preincubation for 60 min at 37° C., the probing reagent was added and the incubation was continued at room temperature. The reactions were terminated by the addition of a stop-buffer. The DNA was precipitated by addition of 200 μL. 2% KAc in 96% EtOH and was analyzed by electrophoresis in 10% polyacrylamide sequencing gels. Radioactive DNA bands were visualized by autoradiography using amplifying screens and Agfa curix RPA X-ray films exposed at −70° C.
Probing conditions were: S1: 0.5 U/μl, 5 min. stopped with 3 μl 1 M EDTA; KMnO4: 1 mM, 15 sec. stopped with 50 μl 1M […], 1.5 M NaAc, pH 7.0; DMS: 1% DMS, 15 sec., stopped as for KMnO4 probing. Samples probed with DMS or KMnO4 were treated with piperidine (0.5 M, 90° C., 20 min.) prior to gel analysis.
For this example the 264 bp EcorI/PvuII fragment of pT8C2A8G2 was used that was 3′-^32P-end-labeled at the EcorI sit. Probing was effected as per the protocols of Example 12. The results are shown in FIG. 12 where in lanes 1 & 9 are controls without PNA. Lanes 1-7 are KMnO4 probing while lanes 9-15 are DMS probing. […]

Series [3] deals with A4GA2GA2 target (pA8G2KS/T3, pT8C2KS/T7 RNA polymerase). In words: Transcription elongation arrest using T3 or T7 RNA polymerase, mixed A/G PNA targets. To be noted: compared to Example 22. The format is biochemical. The method, then:
The complex between the desired PNA and the desired DNA (100 ng) cleaved with the desired restriction enzyme was formed by incubation in 14 μL 10 mM Tris-HCl, 1 mM EDTA, (pH 7.4) buffer for 60 min at 37° C. Subsequently 4 μL 5× concentrated polymerase buffer (0.2 M Tris-HCl, pH 8.0, 125 mM NaCl, 40 mM MgCl2 10 mM spermidine) was added together with 15 U of RNA polymerase and ATP (10 μM), CTP (10 mM), UTP (1 mM) and ^32P-UTP (0.1 μCi). The incubation was continued for 10 min. Following ethanol precipitation, the RNA was analyzed by electrophoresis in polyacrylamide sequencing gels, and radialabeled RNA bands were visualized by autoradiography (using Agfa Curix RPI X-ray films and intensifying screens). Quantitation was performed by densitometric scanning using a Molecular Dynamics laser scanner and the ImageQuant™ software.
Samples identical to those used for Example 20 were analyzed by electrophoresis in a polyacrylamide sequencing gel. The results are shown in FIG. 23 where, Lanes 1-4: pA10KS/T3 RNA polymerase; lanes 5-8: pT10KS/T7 RNA polymerase; lanes 9-12: pA8G2KS/T3 RNA polymerase lanes 13-16: pT8C2KST7 RNA polymerase. The plasmid used in the samples of lanes 1-3 was cleaved with Xbal, that in lanes 6-8 with Pst1, that in lanes 9-11 with BamH1 and that in lanes 14-16 with HindIII. Lanes 1, 8, 9 & 16 are controls without PNA. […]

Series [4] has as its system complementary RNA. In words: Melting temperature of complexes with complementary RNA. The format is binding. As to conditions: 100 mM NaCl, 10 mM Na-phosphate, 0.1 mM EDTA, pH 7; 4 μM of each strand. How it is done:
(§2) The thermal stability measured as the melting temperature, Tm, of complexes between the pentadecamer, H-TGTACGTCACAACTA-NH2 (SEQ ID NO:10) and the complementary deoxyoligonucleotide 3′-ACATGCAGTGTTGAT (SEQ ID NO:47) (termed anti-parallel orientation: amino terminal of the PNA complementary to the 3′-end of the oligonucleotide) was 69.5° C. (see Table II), whereas the Tm of the corresponding PNA-DNA complex in parallel orientation was 56.1° C. The Tm for the PNA-RNA complexes was 72.3 and 51.2° C., respectively (see Table II). The orientation preference was further settled by using two decamer PNAs, and hybridizing these to complementary oligonucleotides in both orientations. The anti-parallel orientation was preferred in all cases (see Table II). Furthermore, it is noteworthy that virtually identical Tms were obtained regardless of which strand is the PNA and which is the DNA (see Table II, 2nd & 3rd row).

For series [5], the system named is complementary RNA. Description: Thermodynamics of duplex formation with RNA. The format is binding. How it is done:
(§3) Thermodynamics parameters for hybridization can be extracted from thermal stability measurements when these are performed at varying concentrations of the complexes, or from the shape of the thermal denaturation curves. Both methods were used to determine ΔH°, ΔS° and ΔG° for formation of the PNA/RNA, DNA/RNA, PNA/DNA and DNA/DNA duplexes (Table III). It is remarkable that the decrease in entropy is almost identical for the formation of DNA/DNA and PNA/DNA duplexes and that both reactions are strongly enthalpy driven.

The next series concerns complementary DNA. Description: Thermodynamics of duplex formation with DNA. The format is binding. How it is done: as §3
The test system of series [6] is RNA target 5′-TAGTTGTGACGTACA-3. In words: Equilibrium and rate constants for duplexes with RNA (gel-shift). The format is binding. As to conditions: [Na+] 0.1 M, 37 ° C.; 100 mM NaCl, 10 mM phosphate, 1 mM EDTA, pH 7.0; gel-shift with 32P-labeled RNA.
Series [7] concerns complementary deoxyoligonucleotide. In words: Melting temperature of complexes with complementary DNA. The format is binding. To be noted: 100 mM NaCl, 10 mM Na-phosphate, 0.1 mM EDTA, pH 7; 4 μM of each strand. The method, then: as §2
The mark [8] stands for this setting: 8 μM, average of the two methods.
The mark [9] stands for this setting: 8 μM, fit to modified two state model.
The mark [10] stands for this setting: 8 μM, linear plots of 1/TM versus log (concentration).
Where [11] appears, read: fit to modified two state model.
[12] abbreviates: fit to modified two state model, 100 mM NaCl, 10 mM Na-phosphate, 0.1 mM EDTA, pH 7.0.
The mark [13] stands for this setting: linear plots of 1/TM versus log (concentration).

For the substance “H-TT(detT-idaT)CCTCTC-LysNH2 [PNA H-TT(detT-idaT)CCTCTC-LysNH2]”, the “melting temperature Tm” value in the series on 5′d(AAAAGGAGAG) was found to be 55 °C; with 5′d(GAGAGGAAAA), 43.5 °C.
Consider “H-T2CT2CT4LysNH2 [PNA H-T2CT2CT4-LysNH2]”, for which, in series [1], the “S1 nuclease digestion of pT9CT9C plasmid complexed with PNA” value is “very weak digestion”. For the same substance, the “strand displacement binding (KMnO4 and DMS probing)” value in [2] is given as “Very little binding”.
For the substance “H-TTTCCTCTC-LysNH2 [PNA H-TTTCCTCTC-LysNH2]”, the “melting temperature Tm” value was found to be 58.5 °C in the series on 5′d(AAAAGGAGAG) and 40.5 °C with 5′d(GAGAGGAAAA).
On to H-T4CT2CT2LysNH2 [PNA H-T4CT2CT2LysNH2], for which the transcription arrest efficiency result in series [3] is given as “much less efficient”.
In the case of “DNA TGTACGTCACAACTA: DNA oligonucleotide 5′-TGTACGTCACAACTA-3′ as first strand of reference duplexes (DNA, backbone and methylation of C not given here) [reference compound]”, the “Melting temperature Tm, DNA:RNA” value in the series with complementary RNA [4] was determined as 50.6 °C. Further, the “TM (average of the two methods)” value worked out at 50.0 °C in the series with complementary RNA [5] (setting [8]) and 53.5 °C in the series with complementary DNA (setting [8]). Moreover, the “TM (melting curve fit)” value with complementary RNA [5] (setting [9]) came to 49.8 °C; with complementary DNA (setting [9]), 53.6 °C. Further, the “TM (1/TM versus log concentration)” value in the series with complementary RNA [5] (setting [10]) turned out to be 50.1 °C; with complementary DNA (setting [10]) it was 53.5 °C. The “ΔG°37 (average of the two methods)” value with complementary RNA [5] (average of the two methods) is -12.6 kcal/mol; in the series with complementary DNA (average of the two methods), -13.1 kcal/mol. Besides, the “ΔH° (average of the two methods)” value was -111.5 kcal/mol in the series on complementary RNA [5] (average of the two methods) and -98.4 kcal/mol with complementary DNA (average of the two methods). In addition, the “ΔS° (average of the two methods)” value in the series on complementary RNA [5] (average of the two methods) is given as −318.9 eu; in the series with complementary DNA (average of the two methods) it was −275.1 eu. In addition, the “ΔG°3 (melting curve fit)” value in the series with complementary RNA [5] (setting [11]) is given as −11.8; in the series on complementary DNA (setting [11]), −12.7. The “ΔS° (melting curve fit)” value in the series on complementary RNA [5] (setting [11]) is listed as −264.9 eu; with complementary DNA (setting [11]) it was −253.9 eu. For the same substance, the figures for the “ΔH° (melting curve fit)” value in the series with complementary RNA [5] (setting [12]) and with complementary DNA (setting [12]) were -94.0 kcal/mol and -91.5 kcal/mol, respectively. The “ΔG°37 (1/TM versus log concentration)” value was −13.3 kcal/mol in the series with complementary RNA [5] (setting [13]) and −13.4 kcal/mol in the series with complementary DNA (setting [13]). Moreover, the “ΔH° (1/TM versus log concentration)” value in the series on complementary RNA [5] (setting [13]) is listed as −128.9 kcal/mol; in the series with complementary DNA (setting [13]), −105.3 kcal/mol. The “ΔS° (1/TM versus log concentration)” value in the series on complementary RNA [5] (setting [13]) is reported as −372.8 eu; in the series on complementary DNA (setting [13]), −296.2 eu. Also, the Kd (usually a measure of binding affinity in units of concentration) in [6] amounted to 2 nM. Also, the “Melting temperature Tm, DNA:DNA” value in series [7] amounted to 53.3 °C.
